Results reported in article PMC10800876, “Evaluation of proline-rich antimicrobial peptides as potential lead structures for novel antimycotics against Cryptococcus neoformans” (Frontiers in Microbiology, 2024).
Converted amounts (≈) assume the structure as drawn. Read-outs that look alike come from different tables or passages of the source. Residues, ends and D or L forms follow the SMILES beside them.

How the values were obtained:
[1] = tested on: C. neoformans strains 1841, H99, and KN99α; test: Broth microdilution assay (MIC); assay type: cell-based, Cryptococcus neoformans
[2] = tested on: C. neoformans 1841 (serotype D)
[3] = tested on: C. neoformans H99 (serotype A)
[4] = tested on: C. neoformans KN99α (serotype A, mating type MATα)
[5] = 1841 (serotype D, 24 h, pH 7.5)
[6] = 1841 (serotype D, 48 h, pH 7.5)
[7] = KN99α (serotype A, mating type MATα, 24 h)
[8] = KN99α (serotype A, mating type MATα, 48 h)
[9] = broth microdilution, 50% SAB in phosphate buffer pH 7.5, 5 × 10^4 CFU/mL, 30°C, read after 24 h, mean of six replicates (n = 6)
[10] = broth microdilution, 50% SAB in phosphate buffer pH 7.5, 5 × 10^4 CFU/mL, 30°C, read after 48 h, n = 6
[11] = broth microdilution, 50% SAB in phosphate buffer, 30°C, read after 24 h, n = 6
[12] = broth microdilution, 50% SAB in phosphate buffer, 30°C, read after 48 h, n = 6

Compound	MIC [1] [µM]	MIC (μmol/L) 1841 24 h [2, 5] [µmol/L]	MIC (μmol/L) 1841 48 h [2, 6] [µmol/L]	MIC (μmol/L) H99 24 h ([3]; H99 (serotype A, 24 h)) [µmol/L]	MIC (μmol/L) H99 48 h ([3]; H99 (serotype A, 48 h)) [µmol/L]	MIC (μmol/L) KN99α 24 h [4, 7] [µmol/L]	MIC (μmol/L) KN99α 48 h [4, 8] [µmol/L]	MIC (μmol/L) 1841 24 h [2, 9] [µmol/L]	MIC (μmol/L) 1841 48 h [2, 10] [µmol/L]	MIC (μmol/L) H99 24 h [3, 11] [µmol/L]	MIC (μmol/L) H99 48 h [3, 12] [µmol/L]	MIC (μmol/L) KN99α 24 h [4, 11] [µmol/L]	MIC (μmol/L) KN99α 48 h [4, 12] [µmol/L]	MIC (mg/L) KN99α 48 h [4, 12] [mg/L]	MIC ([1]; strains 1841, H99, and KN99α, 24 h) [µM]
CC[C@H](C)[C@H](NC(=O)[C@H](CCCCN)NC(=O)[C@H](CCC(=O)O)NC(=O)CNC(=O)CNC(=O)[C@H](CCCCN)NC(=O)[C@H](CCCNC(=N)N)NC(=O)[C@H](CC(C)C)NC(=O)[C@H](CC(C)C)NC(=O)CN)C(=O)NCC(=O)N[C@@H](CCC(=O)O)C(=O)N[C@@H](CCCCN)C(=O)N[C@@H](CC(C)C)C(=O)N[C@@H](CCCCN)C(=O)N[C@@H](CCCCN)C(=O)N[C@H](C(=O)NCC(=O)N[C@@H](CCC(N)=O)C(=O)N[C@@H](CCCCN)C(=O)N[C@H](C(=O)N[C@@H](CCCCN)C(=O)N[C@@H](CC(N)=O)C(=O)N[C@@H](Cc1ccccc1)C(=O)N[C@@H](Cc1ccccc1)C(=O)N[C@@H](CCC(N)=O)C(=O)N[C@@H](CCCCN)C(=O)N[C@@H](CC(C)C)C(=O)N[C@H](C(=O)N1CCC[C@H]1C(=O)N[C@@H](CCC(N)=O)C(=O)N1CCC[C@H]1C(=O)N[C@@H](CCC(=O)O)C(=O)N[C@@H](CCC(N)=O)C(=O)O)C(C)C)[C@@H](C)CC)[C@@H](C)CC [CRAMP, reference compound] (H-GLLRKGGEKIGEKLKKIGQKIKNFFQKLVPQPEQ-OH)	2.1 (≈ 8.15 µg/mL)	2.1 (≈ 8.15 µg/mL)	2.1 (≈ 8.15 µg/mL)	2.1 (≈ 8.15 µg/mL)	2.1 (≈ 8.15 µg/mL)	2.1 (≈ 8.15 µg/mL)	2.1 (≈ 8.15 µg/mL)								
CC[C@H](C)[C@H](NC(=O)[C@@H]1CCCN1C(=O)[C@H](CCCNC(=N)N)NC(=O)[C@@H]1CCCN1C(=O)[C@@H]1CCCN1C(=O)[C@@H](NC(=O)[C@@H]1CCCN1C(=O)[C@H](CCCNC(=N)N)NC(=O)[C@@H]1CCCN1C(=O)[C@H](CC(C)C)NC(=O)[C@H](Cc1ccc(O)cc1)NC(=O)[C@H](CO)NC(=O)CNC(=O)[C@H](CCCCN)NC(=O)[C@H](CC(=O)O)NC(=O)[C@@H](N)C(C)C)[C@@H](C)O)C(=O)N[C@@H](Cc1ccc(O)cc1)C(=O)N[C@@H](CC(N)=O)C(=O)N[C@@H](CCCNC(=N)N)C(=O)N[C@@H](CC(N)=O)C(=O)O [Pyrrhocoricin, reference compound] (H-VDKGSYLPRPTPPRPIYNRN-OH)	> 55							>55	>55	>55	>55	>55	>55		
RRIRPRPPRLPRPRPRPLPFPRPGPRPIPRPLPFPRPGPRPIPRPLPFPRPGPRPIPRP-OH [Bac7 1–60, reference compound]	1.1							1.1	1.1	1.1	1.1	1.1	1.1 to 2.2	8 to 16	
CC[C@H](C)[C@H](NC(=O)[C@H](Cc1ccc(O)cc1)NC(=O)[C@@H](NC(=O)[C@@H]1CCCN1C(=O)[C@H](CCCNC(=N)N)NC(=O)[C@H](CC(N)=O)NC(=O)[C@H](CC(N)=O)NC(=O)CN)C(C)C)C(=O)N1CCC[C@H]1C(=O)N[C@@H](CCC(N)=O)C(=O)N1CCC[C@H]1C(=O)N[C@@H](CCCNC(=N)N)C(=O)N1CCC[C@H]1C(=O)N1CCC[C@H]1C(=O)N[C@@H](Cc1c[nH]cn1)C(=O)N1CCC[C@H]1C(=O)N[C@@H](CCCNC(=N)N)C(=O)N[C@@H](CC(C)C)C(=O)O [Apidaecin 1b, reference compound] (H-GNNRPVYIPQPRPPHPRL-OH)		> 61	> 61	> 61	> 61	> 61	> 61								> 61
